In publication PMC11096368, “Transcriptomic signature, bioactivity and safety of a non-hepatotoxic analgesic generating AM404 in the midbrain PAG region” (Scientific Reports, 2024):
“Also recorded” adds a separate entry of the source.

Key:
beagle dogs = conditions: dog, in vivo
Procedure: Two beagle dogs (1/sex) were administered 30, 100, 250, or 500 mg/kg SRP-001. […] After a period of at least 2 d (minimum of 44 h) following the previous dose of test article, additional dose levels of SRP-001, as indicated above, were administered by oral gavage to the same 2 dogs (1 male and 1 female). Each dose was based on the dog’s most recent body weight. Mortality/morbidity was observed twice daily and once prior to scheduled sacrifice. Body weights were recorded prior to randomization/selection, prior to each dose administration, and prior to scheduled sacrifice. At scheduled sacrifice, a gross necropsy was performed, and the tissues were appropriately discarded. […] Doses for Phase II of the study were set based on Phase I results. The actual dose amounts selected for Phase II of the study were 0, 30, 100, or 300 mg/kg/d of SRP-001. These doses were administered once daily for seven consecutive days to 1 Beagle dog/sex/dose.

[1] = tested on: Peripheral blood reticulocytes; assay: In vivo mammalian micronucleus assay; design: species or system rats
Procedure: Male rats were dosed at 500, 1000, and 2000 mg/kg/d once per day on two consecutive days at 10 mL/kg via oral gavage using 10% labrasol, 10% DMSO, and 80% PEG400 as the vehicle (Bioreliance, Rockville, MD USA). Approximately 48 h after the second dose administration, peripheral blood was collected for flow cytometric analysis of micronuclei. There was no significant increase in the incidence of micronuclei in the test article-dosed animals compared to the concurrent vehicle control. The vehicle control value was compatible with the historical range of % micronucleated reticulocytes (MnRETs). There was a statistically significant increase in MnRETs in the positive control compared to the concurrent vehicle control.

CCN(CC)C(=O)c1ccccc1S(=O)(=O)NCC(=O)Nc1ccc(O)cc1 [SRP-001, N,N-diethyl-2-[[2-(4-hydroxyanilino)-2-oxo-ethyl]sulfamoyl]benzamide]
Gross necropsy (beagle dogs): some red discoloration in the GI tract | Micronucleus assay result ([1]; 500, 1000, 2000 mg/kg/day, 2 days, oral gavage): negative (non-clastogenic); also recorded: Under the conditions of this study, the administration of SRP-001 at doses up to and including a dose of 2000 mg/kg/day was concluded to be negative in the Micronucleus assay | % RETs (reticulocytes) ([1]; treatment groups versus vehicle): Statistically significant decreases
